Reference: patent US20210127671A1, “HYPERSENSITIVE RESPONSE ELICITOR PEPTIDES AND USE THEREOF” (priority 2015, published 2021)
Read-outs that look alike come from different tables or passages of the source. Peptide text beside a SMILES is read from it.

Assays:
[1] = 0.2% AI in deionized water, 48 hours at room temperature
[2] = Stability against chemical degradation in water or pH buffers at 50° C. (HPLC); details: for precipitation during stability test: 0.2% AI, 0.25% Proxel GXL, 50 mM buffers, 50° C.
Description: Briefly, the stability and resistance to chemical degradation of peptides can be assessed as follows using peptide samples having an initial purity of at least about 80%, at least about 82%, at least about 84%, at least about 86%, at least about 88%, at least about 90%, at least about 92%, at least about 94%, at least about 96%, or at least about 98%. For water stability, the peptide is dissolved directly in de-ionized water. For chemical degradation tests, the peptide is dissolved in an aqueous solution containing 50 mM pH buffer and 0.25% Proxel GXL. Exemplary pH buffers include, without limitation: (i) Citrate pH 5.6; (ii) MES pH 6.2; (iii) MOPS pH 6.5; (iv) imidazole pH 7.0; (v) Citrate pH 7.2; (vi) EDDS, pH 7.3; (vii) EDTA pH 8.0; (viii) sodium phosphate pH 8.0; or (ix) TES pH 8.0. Peptides are first dissolved in the aqueous solution at a concentration of 0.5 mg/ml. […] An initial sample of the peptide is removed, diluted 10× with water, and analyzed by reverse-phase HPLC. Briefly, 20 μl of the sample is injected into the solvent flow of an HPLC instrument and analyzed on a C18 HPLC column (YMC ProPack C18, YMC, Japan, or C18 Stablebond, Agilent Technologies, USA) using either a triethylamine phosphate in water/acetonitrile gradient or a 0.1% TFA in water/0.1% TFA in acetonitrile gradient to separate different peptide species. Eluting peptides are monitored by UV absorbance at 218 nm and quantified based on the area under the peak. The area under the peak for the initial peptide sample is treated as the standard for relative quantification in subsequent runs. At regular intervals (e.g., 1, 3, 7, 10, 14, 17, and 21 days), each peptide sample is surveyed and analyzed by HPLC as described above.
Stability against chemical degradation was assessed in various pH buffers by creating 0.2% AI solutions of pure, chemically synthesized peptide in deionized water, 0.25% weight to volume of Proxel® GXL (biocide), and 50 millimolar (mM) of eight buffers (separately) as follows: MES pH 5.6, MOPS pH 6.5, Citrate pH 7.2, EDDS pH 7.3, EDTA pH 8, Phosphate pH 8, Imidazole pH 8, and TES pH 8.

[3] = 50° C., 50 mM TES, pH 8.0 and 30% isopropanol
[4] = pH 8
[5] = not given; remark: listed apart in the source
[6] = system: Soy; test: Growth test, foliar spray, soy; assay type: in vivo
Description: For growth tests, corn and soy seeds were planted in flats with 2 seeds per cell within the flat at a greenhouse facility. The seeds were allowed to germinate and the smaller plant is culled, leaving one plant per cell. Once the first true leaves are fully expanded and the second leaves are beginning to expand, the plants were initially measured for height. This was performed by stretching the highest leaf upward and measuring the distance to the soil. Peptides were dissolved in water at the indicated concentrations (below). The plants were then treated with a foliar spray using widely available spray bottles until liquid was dripping from the leaves. 4 flats of 14 plants each were treated per condition (peptide or control). Corn and soy were treated as indicated in Table 13 and compared with matched water-treated control plants. The plants were allowed to grow for 14 days. The height of the plants was again measured and compared to the original height to quantify growth. In some cases, the plants were allowed to grow without watering for 2-4 days until the onset of wilting and drought stress. At this time, the above-ground portions of the plants were harvested and weighed to determine the fresh mass. […] Growth, dry biomass, and fresh mass are calculated as the % increase over the water-treated control.

## CC[C@H](C)[C@H](NC(=O)CNC(=O)[C@H](CCC(N)=O)NC(=O)[C@@H](N)CC(N)=O)C(=O)N[C@@H](CO)C(=O)N[C@@H](CCC(=O)O)C(=O)N[C@@H](CCCCN)C(=O)N[C@@H](CCC(N)=O)C(=O)N[C@@H](CC(C)C)C(=O)N[C@@H](CC(=O)O)C(=O)N[C@@H](CCC(N)=O)C(=O)N[C@@H](CC(C)C)C(=O)N[C@@H](CC(C)C)C(=O)N[C@H](C(=O)N[C@@H](CCC(N)=O)C(=O)N[C@@H](CC(C)C)C(=O)N[C@H](C(=O)N[C@@H](CCSC)C(=O)N[C@@H](C)C(=O)N[C@@H](CC(C)C)C(=O)N[C@@H](CC(C)C)C(=O)N[C@@H](CCC(N)=O)C(=O)N[C@@H](CCC(N)=O)C(=O)O)[C@@H](C)CC)[C@@H](C)O [Peptide P1] (H-NQGISEKQLDQLLTQLIMALLQQ-OH; N-terminus and C-terminus assumed)
[1]
  solubility: largely insoluble in water
[2]; 50 mM EDDS, pH 7.3
  % of the material remaining after 7 days: 10%
[2]; 50 mM MES pH 6.0, 50° C.
  better stability than the mutants after 14 days: 10-30%
[2]; 50 mM TES, pH 8.0, 80° C. as printed
  % degraded after 1 week of incubation: more than 90%
[2]
  precipitation during stability test: Precipitation of P1 was observed after several days
[2]; dissolved in water, FIG. 1
  stability (in words): modestly stable
[2]; lower pH: deionized water, 50 mM citrate pH 5.6, 50 mM MES pH 6.0
  solubility behaviour: solubility problems
[2]; phosphate, pH 8.0
  solubility (in words): some cloudiness in solution
  stability (in words): appears to outperform the stability of the mutants
other
  solubility: < 1000 µg/mL

## CC[C@H](C)[C@H](NC(=O)CNC(=O)[C@H](CCC(N)=O)NC(=O)[C@@H](N)CO)C(=O)N[C@@H](CO)C(=O)N[C@@H](CCC(=O)O)C(=O)N[C@@H](CCCCN)C(=O)N[C@@H](CCC(N)=O)C(=O)N[C@@H](CC(C)C)C(=O)N[C@@H](CC(=O)O)C(=O)N[C@@H](CCC(N)=O)C(=O)N[C@@H](CC(C)C)C(=O)N[C@@H](CC(C)C)C(=O)N[C@@H](CS)C(=O)N[C@@H](CCC(N)=O)C(=O)N[C@@H](CC(C)C)C(=O)N[C@H](C(=O)N[C@@H](CCC(N)=O)C(=O)N[C@@H](C)C(=O)N[C@@H](CC(C)C)C(=O)N[C@@H](CC(C)C)C(=O)N[C@@H](CCC(N)=O)C(=O)N1CCC[C@H]1C(=O)O)[C@@H](C)CC [Peptide P4] (H-SQGISEKQLDQLLCQLIQALLQP-OH; N-terminus and C-terminus assumed)
[1]
  solubility: completely soluble
[2]
  precipitation during stability test: remained in solution
[2]; aqueous solution
  solution stability (in words): very poor stability
other
  solubility: ≥ 100000 µg/mL

## CSCC[C@H](NC(=O)[C@H](CC(C)C)NC(=O)[C@H](C)NC(=O)[C@H](CCC(N)=O)NC(=O)[C@H](CCSC)NC(=O)[C@@H]1CCCN1C(=O)[C@H](CC(=O)O)NC(=O)[C@@H](N)CCC(N)=O)C(=O)N[C@@H](CCC(N)=O)C(=O)N[C@@H](CC(C)C)C(=O)N[C@@H](CC(C)C)C(=O)N[C@@H](CCC(=O)O)C(=O)N[C@@H](CC(=O)O)C(=O)N[C@@H](CC(C)C)C(=O)N[C@H](C(=O)N[C@@H](CCCCN)C(=O)N[C@@H](CC(C)C)C(=O)N[C@@H](CC(C)C)C(=O)N[C@@H](CCCCN)C(=O)O)C(C)C [Peptide P14d] (H-QDPMQALMQLLEDLVKLLK-OH; N-terminus and C-terminus assumed)
[3]
  chemical stability for >50 days: around 50%

## CC[C@H](C)[C@H](NC(=O)[C@H](CCC(=O)O)NC(=O)[C@H](CCC(=O)O)NC(=O)[C@H](CCC(=O)O)NC(=O)[C@H](CCC(=O)O)NC(=O)[C@H](CCC(=O)O)NC(=O)[C@@H](N)CO)C(=O)N[C@@H](C)C(=O)N[C@@H](CCCCN)C(=O)N[C@@H](CC(C)C)C(=O)N[C@H](C(=O)N[C@@H](CO)C(=O)N[C@@H](C)C(=O)N[C@@H](CC(C)C)C(=O)N[C@H](C(=O)N[C@@H](CCC(=O)O)C(=O)N[C@@H](CO)C(=O)N[C@@H](CC(C)C)C(=O)N[C@@H](CC(C)C)C(=O)N[C@@H](CCC(=O)O)C(=O)O)[C@@H](C)CC)[C@@H](C)CC [Peptide P15-59] (H-SEEEEEIAKLISALIESLLE-OH; N-terminus and C-terminus assumed)
[4]
  solubility: > 10000 µg/mL

## CC[C@H](C)[C@H](NC(=O)[C@H](CC(N)=O)NC(=O)[C@H](CO)NC(=O)[C@H](CCC(N)=O)NC(=O)[C@H](CO)NC(=O)[C@H](CC(=O)O)NC(=O)[C@H](CC(N)=O)NC(=O)[C@@H]1CCCN1C(=O)[C@H](CCCCN)NC(=O)[C@H](CO)NC(=O)[C@H](C)NC(=O)[C@H](CC(=O)O)NC(=O)[C@H](CCC(N)=O)NC(=O)[C@@H]1CCCN1C(=O)[C@H](CC(N)=O)NC(=O)[C@H](CCC(N)=O)NC(=O)[C@@H](NC(=O)[C@@H](NC(=O)[C@H](CO)NC(=O)[C@H](CC(=O)O)NC(=O)[C@@H]1CCCN1C(=O)[C@@H](NC(=O)CNC(=O)[C@H](Cc1ccccc1)NC(=O)[C@@H](N)CC(N)=O)[C@@H](C)O)[C@@H](C)O)C(C)C)C(=O)N[C@@H](C)C(=O)N[C@@H](CCCCN)C(=O)N[C@@H](CC(C)C)C(=O)N[C@H](C(=O)N[C@@H](CO)C(=O)N[C@@H](C)C(=O)N[C@@H](CC(C)C)C(=O)N[C@H](C(=O)N[C@@H](CCSC)C(=O)N[C@@H](CO)C(=O)N[C@@H](CC(C)C)C(=O)N[C@@H](CC(C)C)C(=O)N[C@@H](CCC(N)=O)C(=O)N[C@@H](CCSC)C(=O)O)[C@@H](C)CC)[C@@H](C)CC [Peptide P15a] (H-NFGTPDSTVQNPQDASKPNDSQSNIAKLISALIMSLLQM-OH; N-terminus and C-terminus assumed)
[4]
  solubility: > 10000 µg/mL

## CC[C@H](C)[C@H](NC(=O)[C@H](CC(N)=O)NC(=O)[C@H](CO)NC(=O)[C@H](CCC(N)=O)NC(=O)[C@H](CO)NC(=O)[C@H](CC(=O)O)NC(=O)[C@H](CC(N)=O)NC(=O)[C@@H]1CCCN1C(=O)[C@@H](N)CCCCN)C(=O)N[C@@H](C)C(=O)N[C@@H](CCCCN)C(=O)N[C@@H](CC(C)C)C(=O)N[C@H](C(=O)N[C@@H](CO)C(=O)N[C@@H](C)C(=O)N[C@@H](CC(C)C)C(=O)N[C@H](C(=O)N[C@@H](CCSC)C(=O)N[C@@H](CO)C(=O)N[C@@H](CC(C)C)C(=O)N[C@@H](CC(C)C)C(=O)N[C@@H](CCC(N)=O)C(=O)O)[C@@H](C)CC)[C@@H](C)CC [Peptide P15b] (H-KPNDSQSNIAKLISALIMSLLQ-OH; N-terminus and C-terminus assumed)
[5]; 50 mM MES pH 6.0, and MOPS pH 6.5
  solubility at 0.2% w/v: at least partially soluble
[5]; 50 mM of each of citrate pH ~5.2, citrate pH 7.0, phosphate pH 7.0, TES pH 8.0, EDTA pH 8.0, EDDS pH 7.0
  solubility at 0.2% w/v: insoluble
[5]; water
  solubility at 0.2% w/v: partially soluble

## SEGISEKQLDQLLSQLIEALLQP [Peptide P4-14S-18E]
[6]; Rate 2.0, 14 days, % increase over water-treated control
  Growth (% difference): 9.0 % difference
[6]; Rate 2.0, % increase over water-treated control
  Dry biomass (% difference): 0.8 % difference
